Here are results for 26 compounds from ChEMBL document CHEMBL3596152, “Synthesis of 1-O-acetylbritannilactone analogues from Inula britannica and in vitro evaluation of their anticancer potential” (Medchemcomm, 2014).

pIC50: −log10 of the molar value. Active and inactive are the calls of the source. No cut-off for these calls is given here. Where only a bound is given, the exact number is not on record here.

One assay relates to HCT-116. Briefly: Cytotoxicity against human HCT116 cells assessed as reduction in cell viability incubated for 72 hrs by SRB assay. The following applies: HCT-116, 72 h. In kind it is functional, cell-based. Background: In SRB staining, fixed cells bind dye roughly in proportion to their protein.
The subject of assay [1] is HeLa. Briefly: Cytotoxicity against human HeLa cells assessed as reduction in cell viability incubated for 72 hrs by SRB assay. The assay is classed as functional, cell-based.
Assay [2] can be described thus: Cytotoxicity against human SGC7901 cells assessed as reduction in cell viability incubated for 72 hrs by SRB assay. The assay is classed as functional, cell-based. The conditions noted are these: SGC-7901, 72 h.
Assay [3] in a line: Thiol reactivity in DMSO-d6 solution at 0.05 mmol in presence of beta-mercaptoethanol by 1H NMR Michael acceptor assay.
The nature of assay [4]: Thiol reactivity in DMSO-d6 solution assessed as formation of 1,6-O,O-diacetyl-13-(2-hydroxyethylthiol) britannilactone at 0.05 mmol in presence of beta-mercaptoethanol by 1H NMR Michael acceptor assay.
Assay [5] is described as follows: Thiol reactivity in DMSO-d6 solution assessed as formation of 1-O-acetyl-6-O-benzoyl-13-(2-hydroxyethylthiol) britannilactone at 0.05 mmol in presence of beta-mercaptoethanol by 1H NMR Michael acceptor assay.
Assay [6] relates to HeLa. Briefly: Induction of apoptosis in human HeLa cells assessed as early apoptotic cells levels at 10 uM incubated for 72 hrs by annexin V-FITC and propidium iodide staining based flow cytometry (reference value: 1.4%). In kind it is functional. Background: In flow cytometry, cells or beads pass a laser one at a time.
In assay [7] the test system is HeLa. Nature of the assay: Induction of apoptosis in human HeLa cells assessed as late apoptotic cells levels at 10 uM incubated for 72 hrs by annexin V-FITC and propidium iodide staining based flow cytometry (reference value: 2.8%). The assay is classed as functional.
Assay [8] relates to HeLa. Nature of the assay: Induction of apoptosis in human HeLa cells assessed as necrotic cells levels at 10 uM incubated for 72 hrs by annexin V-FITC and propidium iodide staining based flow cytometry (reference value: 0.2%). The assay is classed as functional.
Assay [9] concerns HeLa. Nature of the assay: Induction of apoptosis in human HeLa cells assessed as increase in cleaved caspase-3 levels at 3 uM incubated for 48 hrs by Western blotting method. In kind it is functional, cell-based.

The term pIC50 denotes the negative decadic logarithm of the IC50, by convention in mol/L. `C=C1C(=O)O[C@@H]2CC(C)=C([C@@H](C)CCCOC(C)=O)[C@@H](OC(=O)COc3cccc4cccnc34)[C@H]12`: the figures for the pIC50 (in the assay on HCT-116; in the assay on HeLa [1]; in assay [2]) were 4.92, 5.05 and 4.84, respectively.

For the compound `C=C1C(=O)O[C@@H]2CC(C)=C([C@@H](C)CCCOC(C)=O)[C@@H](OC(C)=O)[C@H]12`, the result in [3], in assay [4] and in [5] was Active. Moreover, the values for the Activity in the assay on HeLa [6], with HeLa [7] and in the assay with HeLa [8] were 6.9%, 24.4% and 11%, respectively. Also, the pIC50 with HCT-116 was 5.00; with HeLa [1], 4.95; in assay [2], 4.80.

Take `O=c1[nH]cc(F)c(=O)[nH]1` [FLUOROURACIL]: the values for the pIC50 (in the assay on HCT-116; in the assay on HeLa [1]; in assay [2]) were 5.31, 5.33 and 6.07, respectively.

For the compound `C=C1C(=O)O[C@@H]2CC(C)=C([C@@H](C)CCCOC(C)=O)[C@@H](OC(=O)c3cccc(F)c3)[C@H]12`, the results for the pIC50 (in the assay on HCT-116; in the assay on HeLa [1]; in [2]) were 4.84, 4.93 and 4.89, respectively.

As for `CC(=O)OCCC[C@H](C)C1=C(C)C[C@H]2OC(=O)C(CSCCO)[C@H]2[C@@H]1OC(C)=O` (some centres not stated), the pIC50 (in the assay with HCT-116; in the assay on HeLa [1]; in assay [2]) was under 4.00 throughout.

Regarding `C=C1C(=O)O[C@@H]2CC(C)=C([C@@H](C)CCCOC(C)=O)[C@@H](OC(=O)c3cc(OC)c(OC)c(OC)c3)[C@H]12`, in the assay with HeLa [1], the pIC50 was 5.18.

As to `C=C1C(=O)O[C@@H]2CC(C)=C([C@@H](C)CCCOC(C)=O)[C@@H](OC(=O)COc3ccc(C(=O)OCCC)cc3)[C@H]12`, the pIC50 in the assay on HCT-116 is 4.43; with HeLa [1], 4.64; in assay [2], 4.56.

Consider `C=C1C(=O)O[C@@H]2CC(C)=C([C@@H](C)CCCOC(C)=O)[C@@H](OC(=O)CN3CCOCC3)[C@H]12`, for which the pIC50 in the assay with HCT-116 was 4.79; with HeLa [1] it was 4.86; in assay [2], 4.85.

`C=C1C(=O)O[C@@H]2CC(C)=C([C@@H](C)CCCOC(C)=O)[C@@H](OC(=O)COc3cccc(C(C)=O)c3)[C@H]12`: the values for the pIC50 (in the assay on HCT-116; in the assay on HeLa [1]; in assay [2]) were 4.34, 4.41 and 4.34, respectively.

On to `C=C1C(=O)O[C@@H]2CC(C)=C([C@@H](C)CCCOC(C)=O)[C@@H](OC(=O)COc3ccc4c(CC)noc4c3)[C@H]12`, for which the values for the pIC50 (in the assay with HCT-116; with HeLa [1]; in [2]) were 4.74, 4.66 and 4.67, respectively.

As to `C=C1C(=O)O[C@@H]2CC(C)=C([C@@H](C)CCCOC(C)=O)[C@@H](OC(=O)c3ccccc3F)[C@H]12`, the values for the pIC50 (with HCT-116; in the assay with HeLa [1]; in assay [2]) were 4.68, 4.77 and 4.71, respectively.

Take `C=C1C(=O)O[C@@H]2CC(C)=C([C@@H](C)CCCOC(C)=O)[C@@H](OC(=O)COc3ccc([N+](=O)[O-])cc3[N+](=O)[O-])[C@H]12`: the negative-log IC50 (pIC50) (in the assay on HCT-116; with HeLa [1]; in assay [2]) was under 4.00 each time.

As to `C=C1C(=O)O[C@@H]2CC(C)=C([C@@H](C)CCCOC(C)=O)[C@@H](OC(=O)COc3ccc4c(C(F)(F)F)noc4c3)[C@H]12`, the figures for the pIC50 (with HCT-116; in the assay with HeLa [1]; in assay [2]) were 4.67, 4.72 and 4.71, respectively.

In the case of `C=C1C(=O)O[C@@H]2CC(C)=C([C@@H](C)CCCOC(C)=O)[C@@H](OC(=O)COc3cccc4[nH]nnc34)[C@H]12`, the pIC50 is 4.63 with HCT-116, 4.64 in the assay on HeLa [1] and 4.68 in [2].

As for `C=C1C(=O)O[C@@H]2CC(C)=C([C@@H](C)CCCOC(C)=O)[C@@H](OC(=O)c3ccc(C)cc3)[C@H]12`, the pIC50 with HeLa [1] was 5.26.

`C=C1C(=O)O[C@@H]2CC(C)=C([C@@H](C)CCCOC(C)=O)[C@@H](OC(=O)CCl)[C@H]12`: the pIC50 in the assay on HCT-116 is 4.73; in the assay with HeLa [1], 4.55; in [2], 4.58.

On to `C=C1C(=O)O[C@@H]2CC(C)=C([C@@H](C)CCCOC(C)=O)[C@@H](OC(=O)CN(CC)CC)[C@H]12`, for which the pIC50 with HCT-116 is 4.88; in the assay with HeLa [1] it was 4.97; in assay [2] it was 4.94.

Take `C=C1C(=O)O[C@@H]2CC(C)=C([C@@H](C)CCCOC(C)=O)[C@@H](OC(=O)CN3CCCCC3)[C@H]12`: the figures for the pIC50 (with HCT-116; with HeLa [1]; in [2]) were 4.86, 4.99 and 4.94, respectively.

As for `C=C1C(=O)O[C@@H]2CC(C)=C([C@@H](C)CCCOC(C)=O)[C@@H](OC(=O)CN3CCCC3)[C@H]12`, the results for the pIC50 (with HCT-116; in the assay with HeLa [1]; in assay [2]) were 4.69, 4.90 and 4.74, respectively.

For the compound `COc1cc([C@@H]2c3cc4c(cc3[C@@H](O[C@@H]3O[C@@H]5CO[C@@H](C)O[C@H]5[C@H](O)[C@H]3O)[C@H]3COC(=O)[C@H]23)OCO4)cc(OC)c1O` [ETOPOSIDE], the result in the assay with HeLa [9] was Active. Further, the pIC50 in the assay on HCT-116 was 5.67; with HeLa [1], 5.53; in assay [2] it was 5.18.

Turning to `C=C1C(=O)O[C@@H]2CC(C)=C([C@@H](C)CCCOC(C)=O)[C@@H](OC(=O)COc3ccc(C(C)=O)cc3)[C@H]12`, the pIC50 is 4.40 in the assay with HCT-116, 4.36 with HeLa [1] and 4.30 in assay [2].

As for `CC(=O)OCCC[C@H](C)C1=C(C)C[C@H]2OC(=O)C(CSCCO)[C@H]2[C@@H]1OC(=O)c1ccccc1` (some centres not stated), the pIC50 (with HCT-116; in the assay with HeLa [1]; in assay [2]) was under 4.00 throughout.

`C=C1C(=O)O[C@@H]2CC(C)=C([C@@H](C)CCCOC(C)=O)[C@@H](O)[C@H]12`: the pIC50 with HCT-116 is 4.44; in the assay with HeLa [1], 4.49; in [2], 4.32.

Regarding `C=C1C(=O)O[C@@H]2CC(C)=C([C@@H](C)CCCOC(C)=O)[C@@H](OC(=O)c3ccc(F)cc3)[C@H]12`, the results for the pIC50 (in the assay on HCT-116; in the assay with HeLa [1]; in assay [2]) were 4.83, 4.92 and 4.87, respectively.

On to `C=C1C(=O)O[C@@H]2CC(C)=C([C@@H](C)CCCOC(C)=O)[C@@H](OC(=O)c3ccc([N+](=O)[O-])cc3)[C@H]12`, for which, in the assay on HeLa [1], the pIC50 was 4.95.

Consider `C=C1C(=O)O[C@@H]2CC(C)=C([C@@H](C)CCCOC(C)=O)[C@@H](OC(=O)c3ccc(OC)cc3)[C@H]12`, for which, in the assay on HeLa [1], the pIC50 was 5.05.
